{"source": "patent US10370333B2", "about": "(Sanford Burnham Prebys Medical Discovery Institute, priority 2012, dated 2019)"}
{"biological_target": "TNAP (Homo sapiens (Human), UniProt P05186)", "test": "TNAP (PPi) inhibition assay, pyrophosphate as substrate", "assay_type": "biochemical", "experimental": "Expression plasmids containing a secreted epitope-tagged TNAP were transfected into COS-1 cells for transient expression. The medium was replaced with Opti-MEM 24 h later and serum-free media containing secreted proteins was collected 60 hours after electroporation. The medium was dialyzed against TBS containing 1 mM MgCl2 and […] (to remove phosphate) and filtered through a […] cellulose acetate filter.\nTo determine the inhibition selectivity for inhibitor candidates, human TNAP, PLAP or IAP were added to microtiter plates followed by addition of the substrate pNPP (0.5 mM) and activity was measured in 1 M DEA-HCl buffer, pH 9.8 or in 1 M Tris-HCl buffer, pH 7.5, containing 1 mM MgCl2 and 20 μM ZnCl2, in the presence of potential inhibitors (0-30 μM). TNAP, PLAP and IAP activities were adjusted to an approximate λA405 nm, equivalent to 1, measured after 30 min. Residual AP activity in the presence of inhibitors was expressed as percentage of the control activity. To investigate the mechanism of inhibition, double reciprocal plots of enzyme activity (expressed as mA405 nm min−1) vs. substrate concentration were constructed, in the presence of various concentrations of added inhibitors (0-30 μM). The y-axis intercepts of the 1/v vs. 1/[S] plots, were then plotted vs. [I] to graphically extract Ki values as the x-intercept in this plot. […] Inhibitors were further tested and sorted based on their kinetic properties at pH 7.4 using PPi, the relevant natural substrate of TNAP. […] Amounts of released phosphate were measured using the Biomol Green Reagent (Biomol Research Laboratories, Inc., Plymouth Meeting, Pa.).", "units": {"IC50": "nM"}}
{"smiles": "COC(=O)c1ccc(-c2cncc(NS(=O)(=O)c3cc(Br)ccc3OC)c2)cc1", "note": "[Example III-29, 4-[5-(5-Bromo-2-methoxy-benzenesulfonylamino)-pyridin-3-yl]-benzoic Acid Methyl Ester]", "IC50": "< 100"}
{"smiles": "COC(=O)c1ccc(-c2cncc(NS(=O)(=O)c3cc(Cl)ccc3OC)c2)cc1", "note": "[Example III-30, 4-[5-(5-Chloro-2-methoxy-benzenesulfonylamino)-pyridin-3-yl]-benzoic Acid Methyl Ester]", "IC50": "< 100"}
{"smiles": "COc1ccc(OC)c(S(=O)(=O)Nc2cncc(-c3ccc(C#N)cc3)c2)c1", "note": "[Example III-31, N-(5-(4-Cyanophenyl)pyridin-3-yl)-2,5-dimethoxybenzenesulfonamide]", "IC50": "< 100"}
{"smiles": "COc1ccc(Br)cc1S(=O)(=O)Nc1cncc(-c2ccc(C#N)cc2)c1", "note": "[Example III-32, 5-Bromo-N-(5-(4-cyanophenyl)pyridin-3-yl)-2-methoxybenzenesulfonamide]", "IC50": "< 100"}
{"smiles": "COc1ccc(Cl)cc1S(=O)(=O)Nc1cncc(-c2ccc(C#N)cc2)c1", "note": "[Example III-33, 5-Chloro-N-(5-(4-cyanophenyl)pyridin-3-yl)-2-methoxybenzenesulfonamide]", "IC50": "< 100"}
{"smiles": "COc1ccc(OC)c(S(=O)(=O)Nc2cncc(-c3ccccc3OC)c2)c1", "note": "[Example III-34, 2,5-Dimethoxy-N-[5-(2-methoxy-phenyl)-pyridin-3-yl]-benzenesulfonamide]", "IC50": "100 to 1000"}
{"smiles": "COc1ccccc1-c1cncc(NS(=O)(=O)c2cc(Br)ccc2OC)c1", "note": "[Example III-35, 5-Bromo-2-methoxy-N-[5-(2-methoxy-phenyl)-pyridin-3-yl]-benzenesulfonamide]", "IC50": "< 100"}
{"smiles": "COc1ccccc1-c1cncc(NS(=O)(=O)c2cc(Cl)ccc2OC)c1", "note": "[Example III-36, 5-Chloro-2-methoxy-N-[5-(2-methoxy-phenyl)-pyridin-3-yl]-benzenesulfonamide]", "IC50": "< 100"}
{"smiles": "COc1ccc(OC)c(S(=O)(=O)Nc2cncc(-c3ccccc3C)c2)c1", "note": "[Example III-37, 2,5-Dimethoxy-N-(5-(o-tolyl)pyridin-3-yl)benzenesulfonamide]", "IC50": "100 to 1000"}
{"smiles": "COc1ccc(Br)cc1S(=O)(=O)Nc1cncc(-c2ccccc2C)c1", "note": "[Example III-38, 5-Bromo-2-methoxy-N-(5-(o-tolyl)pyridin-3-yl)benzenesulfonamide]", "IC50": "100 to 1000"}
{"smiles": "COc1ccc(OC)c(S(=O)(=O)Nc2cncc(-c3ccccc3Cl)c2)c1", "note": "[Example III-40, N-[5-(2-Chloro-phenyl)-pyridin-3-yl]-2,5-dimethoxy-benzenesulfonamide]", "IC50": "< 100"}
{"smiles": "COc1ccc(Br)cc1S(=O)(=O)Nc1cncc(-c2ccccc2Cl)c1", "note": "[Example III-41, 5-Bromo-N-[5-(2-chloro-phenyl)-pyridin-3-yl]-2-methoxy-benzenesulfonamide]", "IC50": "< 100"}
{"smiles": "COc1ccc(Cl)cc1S(=O)(=O)Nc1cncc(-c2ccccc2Cl)c1", "note": "[Example III-42, 5-Chloro-N-[5-(2-chloro-phenyl)-pyridin-3-yl]-2-methoxy-benzenesulfonamide]", "IC50": "< 100"}
{"smiles": "COc1ccc(OC)c(S(=O)(=O)Nc2cncc(-c3ccccc3C(F)(F)F)c2)c1", "note": "[Example III-43, 2,5-Dimethoxy-N-[5-(2-trifluoromethyl-phenyl)-pyridin-3-yl]-benzenesulfonamide]", "IC50": "100 to 1000"}
{"smiles": "COc1ccc(Br)cc1S(=O)(=O)Nc1cncc(-c2ccccc2C(F)(F)F)c1", "note": "[Example III-44, 5-Bromo-2-methoxy-N-[5-(2-trifluoromethyl-phenyl)-pyridin-3-yl]-benzenesulfonamide]", "IC50": "100 to 1000"}
{"smiles": "COc1cccc(-c2cncc(NS(=O)(=O)c3cc(OC)ccc3OC)c2)c1", "note": "[Example III-46, 2,5-Dimethoxy-N-[5-(3-methoxy-phenyl)-pyridin-3-yl]-benzenesulfonamide]", "IC50": "< 100"}
{"smiles": "COc1cccc(-c2cncc(NS(=O)(=O)c3cc(Br)ccc3OC)c2)c1", "note": "[Example III-47, 5-Bromo-2-methoxy-N-[5-(3-methoxy-phenyl)-pyridin-3-yl]-benzenesulfonamide]", "IC50": "< 100"}
{"smiles": "COc1cccc(-c2cncc(NS(=O)(=O)c3cc(Cl)ccc3OC)c2)c1", "note": "[Example III-48, 5-Chloro-2-methoxy-N-[5-(3-methoxy-phenyl)-pyridin-3-yl]-benzenesulfonamide]", "IC50": "< 100"}
{"smiles": "COc1ccc(OC)c(S(=O)(=O)Nc2cncc(-c3cccc(C)c3)c2)c1", "note": "[Example III-49, 2,5-Dimethoxy-N-(5-m-tolyl-pyridin-3-yl)-benzenesulfonamide]", "IC50": "100 to 1000"}
{"smiles": "COc1ccc(Br)cc1S(=O)(=O)Nc1cncc(-c2cccc(C)c2)c1", "note": "[Example III-50, 5-Bromo-2-methoxy-N-(5-m-tolyl-pyridin-3-yl)-benzenesulfonamide]", "IC50": "100 to 1000"}
{"smiles": "COc1ccc(OC)c(S(=O)(=O)Nc2cncc(-c3cccc(Cl)c3)c2)c1", "note": "[Example III-52, N-[5-(3-Chloro-phenyl)-pyridin-3-yl]-2,5-dimethoxy-benzenesulfonamide]", "IC50": "100 to 1000"}
{"smiles": "COc1ccc(Br)cc1S(=O)(=O)Nc1cncc(-c2cccc(Cl)c2)c1", "note": "[Example III-53, 5-Bromo-N-[5-(3-chloro-phenyl)-pyridin-3-yl]-2-methoxy-benzenesulfonamide]", "IC50": "100 to 1000"}
{"smiles": "COc1ccc(Cl)cc1S(=O)(=O)Nc1cncc(-c2cccc(Cl)c2)c1", "note": "[Example III-54, 5-Chloro-N-[5-(3-chloro-phenyl)-pyridin-3-yl]-2-methoxy-benzenesulfonamide]", "IC50": "100 to 1000"}
{"smiles": "COc1ccc(-c2cncc(NS(=O)(=O)c3cc(OC)ccc3OC)c2)c(OC)c1", "note": "[Example III-55, N-(5-(2,4-Dimethoxyphenyl)pyridin-3-yl)-2,5-dimethoxybenzenesulfonamide]", "IC50": "< 100"}
{"smiles": "COc1ccc(-c2cncc(NS(=O)(=O)c3cc(Br)ccc3OC)c2)c(OC)c1", "note": "[Example III-56, 5-Bromo-N-(5-(2,4-dimethoxyphenyl)pyridin-3-yl)-2-methoxybenzenesulfonamide]", "IC50": "< 100"}
{"smiles": "COc1ccc(-c2cncc(NS(=O)(=O)c3cc(Cl)ccc3OC)c2)c(OC)c1", "note": "[Example III-57, 5-Chloro-N-(5-(2,4-dimethoxyphenyl)pyridin-3-yl)-2-methoxybenzenesulfonamide]", "IC50": "< 100"}
{"smiles": "COc1ccc(OC)c(S(=O)(=O)Nc2cncc(-c3ccccn3)c2)c1", "note": "[Example III-58, N-([2,3′-Bipyridin]-5′-yl)-2,5-dimethoxybenzenesulfonamide]", "IC50": "< 100"}
{"smiles": "COc1ccc(Br)cc1S(=O)(=O)Nc1cncc(-c2ccccn2)c1", "note": "[Example III-59, N-([2,3′-Bipyridin]-5′-yl)-5-bromo-2-methoxybenzenesulfonamide]", "IC50": "< 100"}
{"smiles": "COc1ccc(Cl)cc1S(=O)(=O)Nc1cncc(-c2ccccn2)c1", "note": "[Example III-60, N-([2,3′-Bipyridin]-5′-yl)-5-chloro-2-methoxybenzenesulfonamide]", "IC50": "< 100"}
{"smiles": "COc1ccc(Br)cc1S(=O)(=O)Nc1cncc(-c2cccnc2)c1", "note": "[Example III-62, N-([3,3′-Bipyridin]-5-yl)-5-bromo-2-methoxybenzenesulfonamide]", "IC50": "< 100"}
{"smiles": "COc1ccc(Br)cc1S(=O)(=O)Nc1cncc(-c2ccncc2)c1", "note": "[Example III-65, N-([3,4′-Bipyridin]-5-yl)-5-bromo-2-methoxybenzenesulfonamide]", "IC50": "< 100"}
{"smiles": "COc1ccc(OC)c(S(=O)(=O)Nc2cncc(-c3ccco3)c2)c1", "note": "[Example III-67, N-(5-(Furan-2-yl)pyridin-3-yl)-2,5-dimethoxybenzenesulfonamide]", "IC50": "< 100"}
{"smiles": "COc1ccc(Br)cc1S(=O)(=O)Nc1cncc(-c2ccco2)c1", "note": "[Example III-68, 5-Bromo-N-(5-(furan-2-yl)pyridin-3-yl)-2-methoxybenzenesulfonamide]", "IC50": "< 100"}
{"smiles": "COc1ccc(Cl)cc1S(=O)(=O)Nc1cncc(-c2ccco2)c1", "note": "[Example III-69, 5-Chloro-N-(5-(furan-2-yl)pyridin-3-yl)-2-methoxybenzenesulfonamide]", "IC50": "< 100"}
{"smiles": "COc1ccc(OC)c(S(=O)(=O)Nc2cncc(-c3ccoc3)c2)c1", "note": "[Example III-70, N-(5-(Furan-3-yl)pyridin-3-yl)-2,5-dimethoxybenzenesulfonamide]", "IC50": "< 100"}
{"smiles": "COc1ccc(Br)cc1S(=O)(=O)Nc1cncc(-c2ccoc2)c1", "note": "[Example III-71, 5-Bromo-N-(5-(furan-3-yl)pyridin-3-yl)-2-methoxybenzenesulfonamide]", "IC50": "< 100"}
{"smiles": "COc1ccc(Cl)cc1S(=O)(=O)Nc1cncc(-c2ccoc2)c1", "note": "[Example III-72, 5-Chloro-N-(5-(furan-3-yl)pyridin-3-yl)-2-methoxybenzenesulfonamide]", "IC50": "< 100"}
{"smiles": "COc1ccc(OC)c(S(=O)(=O)Nc2cncc(-c3cccs3)c2)c1", "note": "[Example III-73, 2,5-Dimethoxy-N-(5-(thiophen-2-yl)pyridin-3-yl)benzenesulfonamide]", "IC50": "< 100"}
{"smiles": "COc1ccc(Br)cc1S(=O)(=O)Nc1cncc(-c2cccs2)c1", "note": "[Example III-74, 5-Bromo-2-methoxy-N-(5-(thiophen-2-yl)pyridin-3-yl)benzenesulfonamide]", "IC50": "< 100"}
{"smiles": "COc1ccc(Cl)cc1S(=O)(=O)Nc1cncc(-c2cccs2)c1", "note": "[Example III-75, 5-Chloro-2-methoxy-N-(5-(thiophen-2-yl)pyridin-3-yl)benzenesulfonamide]", "IC50": "< 100"}
